Measured values taken from the supplement of paper PMC13380429.
± gives the standard deviation of the averaged measurements.

How the values were obtained:
Settings in all cases: 72 h
Caco-2 [1] = experiment: drug sensitivity score (DSS) for viability; higher = more toxic; extreme values may be limits of the assay
Calu-3 [2] = experiment: as above
Vero E6 [3] = experiment: as above
HepG2 [4] = experiment: as above
U2OS [5] = experiment: as above
Caco-2 [6] = experiment: cell viability relative to DMSO; higher = less toxic
Calu-3 [7] = experiment: as above
Vero E6 [8] = experiment: as above
HepG2 [9] = experiment: as above
U2OS [10] = experiment: as above
Caco-2 [11] = experiment: relative viability EC50 (midpoint between 100% and the lowest measured viability); higher = less toxic
Calu-3 [12] = experiment: as above
Vero E6 [13] = experiment: as above
HepG2 [14] = experiment: as above
U2OS [15] = experiment: as above

Row | SMILES | drug sensitivity score (Caco-2 [1]) | drug sensitivity score (Calu-3 [2]) | drug sensitivity score (Vero E6 [3]) | drug sensitivity score (HepG2 [4]) | drug sensitivity score (U2OS [5]) | cell viability (Caco-2 [6]; 1 nM) | cell viability (Caco-2 [6]; 10 nM) | cell viability (Caco-2 [6]; 100 nM) | cell viability (Caco-2 [6]; 1000 nM) | cell viability (Caco-2 [6]; 10000 nM) | cell viability (Calu-3 [7]; 1 nM) | cell viability (Calu-3 [7]; 10 nM) | cell viability (Calu-3 [7]; 100 nM) | cell viability (Calu-3 [7]; 1000 nM) | cell viability (Calu-3 [7]; 10000 nM) | cell viability (Vero E6 [8]; 1 nM) | cell viability (Vero E6 [8]; 10 nM) | cell viability (Vero E6 [8]; 100 nM) | cell viability (Vero E6 [8]; 1000 nM) | cell viability (Vero E6 [8]; 10000 nM) | cell viability (HepG2 [9]; 1 nM) | cell viability (HepG2 [9]; 10 nM) | cell viability (HepG2 [9]; 100 nM) | cell viability (HepG2 [9]; 1000 nM) | cell viability (HepG2 [9]; 10000 nM) | cell viability (U2OS [10]; 1 nM) | cell viability (U2OS [10]; 10 nM) | cell viability (U2OS [10]; 100 nM) | cell viability (U2OS [10]; 1000 nM) | cell viability (U2OS [10]; 10000 nM) | relative viability EC50 (Caco-2 [11]) | relative viability EC50 (Calu-3 [12]) | relative viability EC50 (Vero E6 [13]) | relative viability EC50 (HepG2 [14]) | relative viability EC50 (U2OS [15])
1 | CC1(C)S[C@@H]2[C@H](NC(=O)COc3ccccc3)C(=O)N2[C@H]1C(=O)O [penicillin-v-potassium] | 0 | 0 | 0 | 0 | 0 | 97.5% | 95.6% | 94.3% | 92.7% | 90% | 91.3% | 97.1% | 101% | 108% | 94.9% | 104% | 101% | 104% | 103% | 96.9% | 105% | 105% | 103% | 94.9% | 97.4% | 101% | 96.4% | 99.8% | 97% | 98.7% | > 10 µM | > 10 µM | > 10 µM | > 10 µM | > 10 µM
2 | CS(=O)(=O)Oc1ccc2c(NC(N)=O)c(C(=O)c3ccc(Cl)cc3Cl)oc2c1 [lirimilast] | 0 | 0 | 0 | 0 | 0 | 98.5% | 96.3% | 102% | 108% | 110% | 98.8% | 106% | 91.4% | 101% | 104% | 98.6% | 94.7% | 97% | 84.4% | 99.6% | 94.3% | 89.7% | 106% | 94.7% | 95.9% | 95.5% | 99% | 97.9% | 107% | 102% | > 10 µM | > 10 µM | > 10 µM | > 10 µM | > 10 µM
3 | NS(=O)(=O)c1ccc2c(c1)C1C=CCC1C(c1ccc(Br)cc1)N2 (stereo not given) [4BP-TQS] | 0 | 0 | 0 | 0.2 | 0 | 102% | 97.1% | 99.6% | 98.5% | 97.1% | 110% | 89.3% | 101% | 96.3% | 105% | 104% | 99.1% | 102% | 104% | 100% | 101% | 105% | 89.5% | 91.5% | 94% | 97.8% | 98.6% | 103% | 96.6% | 97.5% | > 10 µM | > 10 µM | > 10 µM | > 10 µM | > 10 µM
4 | CCOC(=O)n1ccn(C)c1=S [carbimazole] | 0 | 0 | 0 | 0 | 0 | 98% | 98.7% | 100% | 104% | 100% | 92.4% | 95.4% | 101% | 104% | 107% | 90.9% | 89.5% | 91.2% | 93.7% | 108% | 94.7% | 99.8% | 93.3% | 90.6% | 103% | 99.5% | 91% | 94.4% | 101% | 103% | > 10 µM | > 10 µM | > 10 µM | > 10 µM | > 10 µM
5 | Cc1c(NC(=O)c2cccnc2)c(=O)n(-c2ccccc2)n1C [nifenazone] | 0 | 0 | 0 | 0 | 0 | 110% | 98.7% | 93.2% | 97.1% | 89.4% | 106% | 106% | 92.3% | 100% | 106% | 105% | 101% | 99.3% | 101% | 97.2% | 105% | 91.9% | 109% | 94.4% | 90.6% | 98.3% | 104% | 102% | 105% | 101% | > 10 µM | > 10 µM | > 10 µM | > 10 µM | > 10 µM
6 | CN(C)Cc1c(C(=O)NCCOc2ccc(C(=O)NO)cc2)oc2ccccc12 | 15.6 | 16.1 | 13 | 19 | 17.6 | 90.2% | 101% | 89.2% | 23.6% | 1.4% | 95.3% | 93.2% | 73.5% | 31.9% | 8.2% | 97.4% | 96.2% | 95.7% | 38.2% | -0.1% | 98.9% | 92.7% | 76.5% | 11.4% | 0.1% | 96.9% | 101% | 82.4% | 15.8% | 1.3% | 0.425 µM | 0.276 µM | 0.738 µM | 0.231 µM | 0.292 µM
7 | CC(C)(C)C(=O)OCOC(=O)[C@@H]1N2C(=O)C[C@H]2S(=O)(=O)C1(C)C [sulbactam-pivoxil] | 0 | 0 | 0 | 0 | 0 | 99.3% | 90.6% | 93.5% | 98.6% | 101% | 98.5% | 97.4% | 109% | 108% | 101% | 99.3% | 104% | 100% | 99.1% | 99.2% | 98.2% | 100% | 96.2% | 105% | 103% | 95.7% | 96.6% | 94.9% | 98.6% | 95.3% | > 10 µM | > 10 µM | > 10 µM | > 10 µM | > 10 µM
8 | C[N+](C)(C)CC[N+]1(C)Cc2c(Cl)c(Cl)c(Cl)c(Cl)c2C1 [chlorisondamine-diiodide] | 0 | 0 | 0 | 0 | 0 | 92.1% | 93% | 99.9% | 103% | 88.8% | 93.2% | 102% | 102% | 89.8% | 100% | 100% | 95.5% | 95.7% | 97.4% | 94% | 94% | 110% | 103% | 99.9% | 101% | 97.2% | 96.2% | 96.1% | 97.5% | 92.5% | > 10 µM | > 10 µM | > 10 µM | > 10 µM | > 10 µM
9 | Cc1ccc(S(N)(=O)=O)cc1 [para-toluenesulfonamide] | 0 | 0 | 0 | 0 | 0 | 103% | 99.2% | 98.1% | 98.9% | 100% | 102% | 94.8% | 91.1% | 91.8% | 95.9% | 102% | 94.6% | 98.4% | 99.2% | 103% | 105% | 107% | 110% | 94.4% | 120% | 100% | 96% | 97.7% | 102% | 104% | > 10 µM | > 10 µM | > 10 µM | > 10 µM | > 10 µM
10 | CN(C)C(=O)Oc1ccc[n+](C)c1 [mestinon] | 0 | 0 | 0 | 0 | 0 | 91.5% | 95.9% | 107% | 99.8% | 99.1% | 96.5% | 95.1% | 102% | 93.7% | 94.5% | 99.8% | 108% | 102% | 104% | 93.5% | 95.1% | 93% | 101% | 91.2% | 96.3% | 104% | 102% | 106% | 98.6% | 104% | > 10 µM | > 10 µM | > 10 µM | > 10 µM | > 10 µM
11 | [Cl][Ti][Cl].c1cc[cH-]c1.c1cc[cH-]c1 [titanocene-dichloride] | 0 | 0 | 0 | 0 | 0 | 97.7% | 98.2% | 99.2% | 94.6% | 95.8% | 99.2% | 97.1% | 112% | 97.1% | 110% | 93.7% | 95.2% | 93.4% | 98.9% | 105% | 89.6% | 91.9% | 97.2% | 104% | 101% | 93.2% | 93.1% | 97.5% | 94.6% | 96.1% | > 10 µM | > 10 µM | > 10 µM | > 10 µM | > 10 µM
12 | CN1C(=O)N(c2ccc(C#N)c(C(F)(F)F)c2)C(=O)[C@]1(CO)c1ccccc1 [GLPG0492-R-enantiomer] | 0 | 0 | 0 | 0 | 0 | 96.1 ± 13% | 99.5 ± 4.8% | 94.4 ± 5.4% | 96 ± 7.1% | 93.7 ± 7.5% | 95.9 ± 3.8% | 109 ± 4.2% | 106 ± 3.9% | 105 ± 2.9% | 110 ± 15% | 96.6 ± 0.28% | 101 ± 2.3% | 96.7 ± 4.3% | 97 ± 0.99% | 94.3 ± 8.8% | 102 ± 8.3% | 103 ± 2.5% | 102.8 ± 0.78% | 100 ± 5.1% | 102 ± 3.8% | 101 ± 4.5% | 104 ± 3.9% | 99 ± 1.3% | 101 ± 5.1% | 97.5 ± 4.2% | > 10 µM | > 10 µM | > 10 µM | > 10 µM | > 10 µM
13 | CNCC[C@@H](Oc1ccccc1C)c1ccccc1 [atomoxetine] | 0 | 1.2 | 0 | 0 | 0 | 99% | 96.8% | 98.3% | 97.8% | 92.8% | 106% | 104% | 98.7% | 86% | 96.3% | 106% | 106% | 102% | 106% | 99.1% | 87.3% | 98.5% | 100% | 104% | 93.5% | 106% | 97.5% | 101% | 94.8% | 101% | > 10 µM | > 10 µM | > 10 µM | > 10 µM | > 10 µM
14 | O=C(CCCCCCC(=O)Nc1ccccc1)NO [vorinostat] | 6.3 | 9.1 | 7.3 | 9.7 | 8.7 | 89.9% | 99.9% | 93.9% | 93.9% | 2.5% | 96.1% | 96.9% | 87.2% | 62.1% | 20.2% | 99.5% | 99.5% | 103% | 88.9% | 0.3% | 111% | 98.2% | 98.1% | 69.8% | 3% | 97.4% | 96.3% | 94.9% | 79.5% | 2.2% | 2.66 µM | 0.91 µM | 2.25 µM | 1.37 µM | 1.7 µM
